# According to US20120165310A1, “ETHER DERIVATIVES OF BICYCLIC HETEROARYLS” (NOVARTIS AG, priority 2009, published 2012):
# Target: T1, IGF-1R (Homo sapiens, UniProt P08069)
# T1 construct: expressed in transfected cells; host or cells: Hek293 (Hek293-IGF1R)
# Experiment: Cellular IGF-1R assay: capture ELISA (MSD) of receptor phosphorylation in Hek293 cells
# Format: cell-based
# Settings: Hek293-IGF1R cells, 1 h pre-incubation, 10 min IGF stimulation, pIGF1R capture ELISA
# How it was run: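 IC50 from 4-parameter fit of IGF1R phosphorylation, normalised to IGF-stimulated and unstimulated controls, measured by MSD capture ELISA on lysates. Hek293-IGF1R cells in starvation medium got compound 1 h (top 10 μM, 3-fold steps, 0.1% DMSO) before a 10 min pulse of 1.0 ng/μL IGF.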
# T1 sequence (P08069 31-1367): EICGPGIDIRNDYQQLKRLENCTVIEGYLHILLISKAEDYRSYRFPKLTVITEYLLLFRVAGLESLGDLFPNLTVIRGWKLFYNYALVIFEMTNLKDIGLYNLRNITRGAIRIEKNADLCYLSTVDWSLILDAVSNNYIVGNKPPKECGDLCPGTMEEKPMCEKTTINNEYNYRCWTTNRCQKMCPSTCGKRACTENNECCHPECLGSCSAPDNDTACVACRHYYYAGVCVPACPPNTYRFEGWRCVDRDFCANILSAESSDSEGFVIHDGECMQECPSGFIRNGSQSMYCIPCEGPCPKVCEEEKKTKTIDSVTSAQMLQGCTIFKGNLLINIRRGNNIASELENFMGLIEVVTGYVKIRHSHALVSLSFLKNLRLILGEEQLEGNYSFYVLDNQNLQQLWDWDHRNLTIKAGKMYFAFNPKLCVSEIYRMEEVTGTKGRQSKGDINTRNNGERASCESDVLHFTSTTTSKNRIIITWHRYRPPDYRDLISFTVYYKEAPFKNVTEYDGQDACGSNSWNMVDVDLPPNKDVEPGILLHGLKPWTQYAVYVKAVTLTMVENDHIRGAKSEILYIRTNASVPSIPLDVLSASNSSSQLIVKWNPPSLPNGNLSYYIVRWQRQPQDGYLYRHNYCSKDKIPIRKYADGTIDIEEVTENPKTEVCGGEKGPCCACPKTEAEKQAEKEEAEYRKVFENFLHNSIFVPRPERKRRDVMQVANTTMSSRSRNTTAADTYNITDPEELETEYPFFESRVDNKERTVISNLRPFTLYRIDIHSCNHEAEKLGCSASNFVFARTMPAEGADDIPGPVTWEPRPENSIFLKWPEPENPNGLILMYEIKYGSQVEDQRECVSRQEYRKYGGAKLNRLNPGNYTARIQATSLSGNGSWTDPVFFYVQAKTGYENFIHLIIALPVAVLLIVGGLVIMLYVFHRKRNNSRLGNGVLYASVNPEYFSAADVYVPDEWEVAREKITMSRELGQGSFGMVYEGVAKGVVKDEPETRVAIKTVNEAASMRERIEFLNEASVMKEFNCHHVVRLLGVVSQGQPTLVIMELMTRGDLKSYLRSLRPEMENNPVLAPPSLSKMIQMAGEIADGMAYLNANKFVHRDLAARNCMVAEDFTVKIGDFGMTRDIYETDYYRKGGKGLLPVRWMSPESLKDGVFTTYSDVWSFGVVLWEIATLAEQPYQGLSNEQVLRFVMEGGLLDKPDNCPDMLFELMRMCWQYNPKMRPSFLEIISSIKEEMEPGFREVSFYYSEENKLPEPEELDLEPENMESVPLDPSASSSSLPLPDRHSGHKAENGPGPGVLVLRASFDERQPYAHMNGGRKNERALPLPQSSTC
row,IC50 [µM],SMILES
1,0.017,"Nc1ncnc2c1c(-c1cccc(OCC34CCC(CC3)O4)c1)cn2[C@H]1C[C@@H](N2CCS(=O)(=O)CC2)C1 (relative stereo) [Example 230, 7-[cis-3-(1,1-dioxo-thiomorpholin-4-yl)-cyclobutyl]-5-[3-(7-oxa-bicyclo[2.2.1]hept-1-ylmethoxy)-phenyl]-7H-pyrrolo[2,3-d]pyrimidin-4-ylamine]"
2,0.054,"Nc1ncnc2c1c(-c1cccc(OCC34CCC(CC3)O4)c1)cn2[C@H]1CC[C@@H](NC(=O)C2CCC2)CC1 [Example 142, N-((1S,4S)-4-(5-(3-(7-oxabicyclo[2.2.1]heptan-1-ylmethoxy)phenyl)-4-amino-7H-pyrrolo[2,3-d]pyrimidin-7-yl)cyclohexyl)cyclobutanecarboxamide]"
3,0.112,"CC(=O)NN[C@H]1C[C@@H](n2cc(-c3cccc(OCC45CCC(CC4)O5)c3)c3c(N)ncnc32)C1 (relative stereo) [Example 193, Acetic acid N′-(cis-3-{4-amino-5-[3-(7-oxa-bicyclo[2.2.1]hept-1-ylmethoxy)-phenyl]-pyrrolo[2,3-d]pyrimidin-7-yl}-cyclobutyl)-hydrazide]"
4,0.106 to 0.448,"Cc1nccn1C[C@H]1C[C@@H](n2cc(-c3cccc(OCC45CCC(C)(CC4)O5)c3)c3c(N)ncnc32)C1 (relative stereo) [Example 157, 7-[cis-3-(2-methyl-imidazol-1-ylmethyl)-cyclobutyl]-5-[3-(4-methyl-7-oxa-bicyclo[2.2.1]hept-1-ylmethoxy)-phenyl]-7H-pyrrolo[2,3-d]pyrimidin-4-ylamine]"
5,0.327,"Nc1ncnc2c1c(-c1cccc(OCC34CCC(CC3)O4)c1)cn2C1CC(O)(CN2CCC(O)C2)C1 (single isomer, unassigned) [Example 207]"
6,0.32,"Nc1ncnc2c1c(-c1cccc(OCC34CCC(CC3)O4)c1)cn2[C@H]1CC[C@@H](CN2CCNC(=O)C2)CC1 [Example 129, 4-(((1S,4S)-4-(5-(3-(7-oxabicyclo[2.2.1]heptan-1-ylmethoxy)phenyl)-4-amino-7H-pyrrolo[2,3-d]pyrimidin-7-yl)cyclohexyl)methyl)piperazin-2-one]"
7,0.593,"Nc1ncnc2c1c(-c1cccc(OCC34CCC(CC3)O4)c1)cn2[C@H]1CC[C@@H](NC(=O)CC(F)(F)F)CC1 [Example 144, N-((1S,4S)-4-(5-(3-(7-oxabicyclo[2.2.1]heptan-1-ylmethoxy)phenyl)-4-amino-7H-pyrrolo[2,3-d]pyrimidin-7-yl)cyclohexyl)-3,3,3-trifluoropropanamide]"
8,0.109,"Nc1ncnc2c1c(-c1cccc(OCC34CCC(CC3)O4)c1)cn2C1CC(CNC(CO)CO)C1 (stereo not shown) [Example 168, 2-[(3-{4-amino-5-[3-(7-oxa-bicyclo[2.2.1]hept-1-ylmethoxy)-phenyl]-pyrrolo[2,3-d]pyrimidin-7-yl}-cyclobutylmethyl)-amino]-propane-1,3-diol]"
9,0.501,"Nc1ncnc2c1c(-c1cccc(OCC34CCC(CC3)O4)c1)cn2C1CC(O)(CN2CCC(O)C2)C1 (single isomer, unassigned) [Example 203]"
10,0.385,"CN1CCN([C@H]2C[C@@H](n3cc(-c4cccc(OCC56CCC(CC5)O6)c4)c4c(N)ncnc43)C2)CC1=O (relative stereo) [Example 195, cis-4-(3-{4-Amino-5-[3-(7-oxa-bicyclo[2.2.1]hept-1-ylmethoxy)-phenyl]-pyrrolo[2,3-d]pyrimidin-7-yl}-cyclobutyl)-1-methyl-piperazin-2-one]"
11,0.143,"CC(C)C(=O)NCC1CC(n2cc(-c3cccc(OCC45CCC(CC4)O5)c3)c3c(N)ncnc32)C1 (stereo not shown) [Example 164, N-(3-{4-amino-5-[3-(7-oxa-bicyclo[2.2.1]hept-1-ylmethoxy)-phenyl]-pyrrolo[2,3-d]pyrimidin-7-yl}-cyclobutylmethyl)-isobutyramide]"
12,0.247,"Nc1ncnc2c1c(-c1cccc(OCC34CCC(CC3)O4)c1)cn2[C@H]1CC[C@@H](Cn2ccnc2)CC1 [Example 148, 7-((1S,4S)-4-((1H-imidazol-1-yl)methyl)cyclohexyl)-5-(3-(7-oxabicyclo[2.2.1]heptan-1-ylmethoxy)phenyl)-7H-pyrrolo[2,3-d]pyrimidin-4-amine]"
13,0.288,"Nc1ncnc2c1c(-c1cccc(OCC34CCC(CC3)O4)c1)cn2C1CC(O)(CN2CCC(O)C2)C1 (single isomer, unassigned) [Example 206]"

# The remaining lines, values behind:
row,SMILES,IC50 [µM]
1,"Nc1ncnc2c1c(-c1cccc(OCC34CCC(CC3)O4)c1)cn2C1CC(CN2CC(O)C2)C1 (stereo not shown) [Example 26, 1-(3-{4-amino-5-[3-(7-oxa-bicyclo[2.2.1]hept-1-ylmethoxy)-phenyl]-pyrrolo[2,3-d]pyrimidin-7-yl}-cyclobutylmethyl)azetidin-3-ol]",0.038
2,"CC1(C)CCC(COc2cccc(-c3cn([C@H]4CC[C@H](N5CCOCC5)CC4)c4ncnc(N)c34)c2)O1 (relative stereo) [Example 64, 5-[3-(5,5-dimethyl-tetrahydro-furan-2-ylmethoxy)-phenyl]-7-(trans-4-morpholin-4-yl-cyclohexyl)-7H-pyrrolo[2,3-d]pyrimidin-4-ylamine]",0.367
3,"Nc1ncnc2c1c(-c1cccc(OCC34CCC(CC3)O4)c1)cn2[C@H]1CC[C@@H](CN2CC[S+]([O-])CC2)CC1 [Example 115, 5-[3-(7-Oxa-bicyclo[2.2.1]hept-1-ylmethoxy)-phenyl]-7-cis-[4-(1-oxo-1λ4-thiomorpholin-4-ylmethyl)-cyclohexyl]-7H-pyrrolo[2,3-d]pyrimidin-4-ylamine]",0.287
4,"NC(=O)[C@@H]1COCCN1C[C@H]1C[C@@H](n2cc(-c3cccc(OCC4CCCCO4)c3)c3c(N)ncnc32)C1 (stereo partly drawn) [Example 96, (3S)-cis-4-((3-(4-amino-5-(3-((tetrahydro-2H-pyran-2-yl)methoxy)phenyl)-7H-pyrrolo[2,3-d]pyrimidin-7-yl}-cyclobutyl)methyl)morpholine-3-carboxamide]",0.059
5,"CC1(C)CCC(COc2cccc(-c3cn([C@H]4C[C@@H](CN5CCC[C@@H]5C(N)=O)C4)c4ncnc(N)c34)c2)O1 (stereo partly drawn) [Example 51, (R)-1-(cis-3-{4-amino-5-[3-(5,5-dimethyl-tetrahydro-furan-2-ylmethoxy)-phenyl]-pyrrolo[2,3-d]pyrimidin-7-yl}-cyclobutylmethyl)-pyrrolidine-2-carboxylic acid amide]",0.053
6,"CC1(C)CCC(COc2cccc(-c3cn([C@H]4C[C@@H](CN5CC(C(N)=O)C5)C4)c4ncnc(N)c34)c2)O1 (relative stereo) [Example 49, 1-(cis-3-{4-amino-5-[3-(5,5-dimethyl-tetrahydro-furan-2-ylmethoxy)-phenyl]-pyrrolo[2,3-d]pyrimidin-7-yl}-cyclobutylmethyl)-azetidine-3-carboxylic acid amide]",0.192 to 0.241
7,"NC(=O)[C@@H]1CCCN1C[C@H]1C[C@@H](n2cc(-c3cccc(OC[C@@H]4CCCCO4)c3)c3c(N)ncnc32)C1 [Example 44, (S)-1-[3-(4-amino-5-{3-[(S)-1-(tetrahydro-pyran-2-yl)methoxy]-phenyl}-pyrrolo[2,3-d]pyrimidin-7-yl)-cyclobutylmethyl]-pyrrolidine-2-carboxylic acid amide]",0.007 to 0.015
8,"Nc1ncnc2c1c(-c1cccc(OCC34CCC(CC3)O4)c1)cn2[C@H]1C[C@H](N2CC3CC2CN3CCO)C1 (stereo partly drawn) [Example 175, 2-[(trans-3-{4-amino-5[3-(7-oxa-bicyclo[2.2.1]hept-1-ylmethoxy)-phenyl]-pyrrolo[2,3-d]pyrimidin-7-yl}-cyclobutyl)-2,5-diaza-bicyclo[2.2.1]hept-2-yl]-ethanol]",0.436
9,"CN1CCN(C[C@]2(O)C[C@@H](n3cc(-c4cccc(OCC56CCC(CC5)O6)c4)c4c(N)ncnc43)C2)CC1 [Example 123, (Z)-3-{4-Amino-5-[3-(7-oxa-bicyclo[2.2.1]hept-1-ylmethoxy)-phenyl]-pyrrolo[2,3-d]pyrimidin-7-yl}-1-(4-methyl-piperazin-1-ylmethyl)-cyclobutanol]",0.069
10,"Nc1ncnc2c1c(-c1cccc(OCC3CCCCO3)c1)cn2[C@H]1C[C@@H](CN2CCC2)C1 (mixture of isomers) [Example 1, (rac)-cis-7-(3-azetidin-1-ylmethyl-cyclobutyl)-5-[3-(tetrahydro-pyran-2-ylmethoxy)-phenyl]-7H-pyrrolo[2,3-d]pyrimidin-4-ylamine]",0.119 to 0.139
11,"CN1CCN(C[C@H]2CC[C@@H](n3cc(-c4cccc(OCC56CCC(CC5)O6)c4)c4c(N)ncnc43)CC2)CC1 [Example 113, 5-(3-(7-oxabicyclo[2.2.1]heptan-1-ylmethoxy)phenyl)-7-((1S,4S)-4-((4-methylpiperazin-1-yl)methyl)cyclohexyl)-7H-pyrrolo[2,3-d]pyrimidin-4-amine]",0.178
12,"CSC[C@H]1C[C@@H](n2cc(-c3cccc(OCC4CCCCO4)c3)c3c(N)ncnc32)C1 (relative stereo) [Example 85, 7-(cis-3-methylsulfanylmethyl-cyclobutyl)-5-[3-(tetrahydro-pyran-2-ylmethoxy)-phenyl]-7H-pyrrolo[2,3-d]pyrimidin-4-ylamine]",0.557
13,"CC1CCC(COc2cccc(-c3cn(C4CC(CN5CCC5)C4)c4ncnc(N)c34)c2)O1 (single isomer, unassigned) [Example 7, cis-(RR and SS)-7-(3-azetidin-1-ylmethyl-cyclobutyl)-5-[3-(5-methyl-tetrahydro-furan-2-ylmethoxy)-phenyl]-7H-pyrrolo[2,3-d]pyrimidin-4-ylamine]",0.095 to 0.117
14,"Nc1ncnc2c1c(-c1cccc(OCC3CCCCO3)c1)cn2[C@H]1C[C@@H](CN2CC[C@@H](O)C2)C1 (stereo partly drawn) [Example 33, (R)-1-(cis-3-{4-amino-5-[3-(tetrahydro-pyran-2-ylmethoxy)-phenyl]-pyrrolo[2,3-d]pyrimidin-7-yl}-cyclobutylmethyl)-pyrrolidin-3-ol]",0.235
15,"Nc1ncnc2c1c(-c1cccc(OCC3CCCO3)c1)cn2[C@H]1C[C@@H](CN2CCC(F)(F)CC2)C1 (relative stereo) [Example 83, 7-[cis-3-(4,4-difluoro-piperidin-1-ylmethyl)-cyclobutyl]-5-[3-(tetrahydro-furan-2-ylmethoxy)-phenyl]-7H-pyrrolo[2,3-d]pyrimidin-4-ylamine]",0.372
